What all share (format): physicochemical
Series [1] in a line: Foaming properties, procedure based upon ASTM D 1173-53. Particulars: for Initial Foam: foam height at completion of addition. Here is the method: The foaming properties of aqueous solutions of N,N′-di-iso-pentyl DL-malamide (Ex 2) and N,N′-di-2-ethylhexyl DL-malamide (Ex 3), were examined using a procedure based upon ASTM D 1173-53. In this test, a 0.1 wt % aqueous mixture of the surfactant was prepared, any undissolved solids were filtered off, and the filtrate was added from an elevated glass pipette to a glass receiver containing the same filtrate. The foam height was measured at the completion of the addition (“Initial Foam Height”) and the time required for the foam to dissipate at the air-liquid interface (“Time to 0 Foam”) was recorded. This test provides a comparison between the foaming characteristics of various surfactants. In general, in coatings, inks, adhesives, fountain solution, agricultural, and electronic chemical formulations, foam is undesirable because it complicates handling and can lead to coating and print defects, and to inefficient application of agricultural materials or electronic chemicals.
The foaming properties of 0.1 wt % solutions of two representative nonionic surfactants, a commercial nonylphenol 15 mole ethoxylate surfactant and a commercial C8 alkyl glucoside surfactant were examined using the procedure based upon ASTM D 1173-53.

The nature of series [2]: Equilibrium surface tension, Wilhelmy plate method, saturated solutions in distilled water. Particulars: for Limiting EST: saturated solution in distilled water, undissolved material filtered off, Wilhelmy plate, 25° C. Here is the method:
(§1) Saturated solutions of the materials of Examples 1-3 in distilled water were prepared. After shaking the solutions for ˜24 hours, the undissolved material was removed via filtration. Equilibrium surface tension data were obtained using the Wilhelmy plate method, described in L. Wilhelmy, Ann. Phys. 1863, 119, 177.
The limiting surface tensions represent the lowest surface tensions in water which can be achieved for a given surfactant regardless of the amount of surfactant used and is used to evaluate the effectiveness of a surfactant. Lower surface tensions would allow for the elimination of defects upon application of a formulation onto low energy surfaces.

Series [3] is described as follows: Concentration of surfactant in filtered saturated solution in distilled water. Particulars: shaken ~24 hours. As to the method: as §1
[4] abbreviates: 0.1 wt % aqueous mixture, filtered.

Some results are limits rather than exact numbers.

As to C8 Alkyl glucoside [reference compound], in series [1] (setting [4]), the “Foam after 5 min” value came to 1.0 cm and the “Initial Foam” value is given as 1.9 cm. The “Time to zero foam” value in series [1] (0.1 wt % solution) worked out at 37 min.
`CC(C)CCNC(=O)CC(O)C(=O)NCCC(C)C` (racemic) [Di-isopentyl DL-malamide (Ex 2), N,N′-Di-iso-pentyl DL-malamide]: in series [2], the “Limiting EST” value stood at 42.9 dyne/cm and the “lowering the equilibrium surface tension of water (in words)” value is “particularly effective”. In addition, in series [1] (setting [4]), the “Time to zero foam” value amounted to 0.583 min, the “Foam after 5 min” value is 0 cm and the “Initial Foam” value is 1.4 cm. Moreover, in series [3], the “Concentration of Surfactant in Solution” value is reported as less than 0.4 wt. %.
“Nonylphenol 15 mole ethoxylate [reference compound]”: in series [1] (setting [4]), the “Foam after 5 min” value is given as 4 cm and the “Initial Foam” value came out at 5 cm. Further, the “Time to zero foam” value in series [1] (0.1 wt % solution) is more than 5 min.
Regarding `CC(C)CNC(=O)CC(O)C(=O)NCC(C)C` (racemic) [Di-isobutyl DL-malamide (Ex 1), N,N′-Di-iso-butyl DL-malamide], in series [2], the “Limiting EST” value was found to be 51.3 dyne/cm. Further, the “Concentration of Surfactant in Solution” value in series [3] is reported as less than 1.0 wt. %.
With `CCCCC(CC)CNC(=O)CC(O)C(=O)NCC(CC)CCCC` (racemic) [Di-2-ethylhexyl DL-malamide (Ex 3), N,N′-Di-2-ethylhexyl DL-malamide], in series [2], the “Limiting EST” value was 38.5 dyne/cm and the “lowering the equilibrium surface tension of water (in words)” value is given as “particularly effective”. Moreover, in series [1] (setting [4]), the “Time to zero foam” value is listed as “˜2 sec”, the “Foam after 5 min” value came out at 0 cm and the “Initial Foam” value amounted to 1.5 cm. Further, the “Concentration of Surfactant in Solution” value in series [3] is reported as less than 0.1 wt. %.

The values above are taken from US6413914B1, “Low foam N,N′-dialkylmalamide wetting agents” (Air Products and Chemicals, Inc., priority 2001, dated 2002).
